From patent publication US20160074399A1, “Salts of an Epidermal Growth Factor Receptor Kinase Inhibitor” (Clovis Oncology, Inc., priority 2013, published 2016)

Assay: Competitive slurry experiments Form I vs. Form III
Assay type: physicochemical
Details: ca. 3 days
Procedure: Competitive slurry experiments were set up in acetone, isopropanol, acetone:water (80:20) and isopropyl acetate at both room temperature (ca. 22° C.) and 60° C. Approximately 200 mg of each of Forms I and III material was placed into a vial and 4 mL of the appropriate solvent system was added to produce a slurry. For each experiment, the slurries were allowed to stir for ca. 3 days. Analysis by XRPD was then conducted to determine the form of the resultant solid. Competitive slurry experiments of Form I vs. Form III were carried out in 4 solvent systems and resulting solids were analysed by XRPD analysis (FIG. 82 and FIG. 83).

For `Br.C=CC(=O)Nc1cccc(Nc2nc(Nc3ccc(N4CCN(C(C)=O)CC4)cc3OC)ncc2C(F)(F)F)c1` [I and III], the “Result (form of resultant solid)” value (Acetone, 60° C.) was “Form I”, the “Result (form of resultant solid)” value (Acetone, RT (ca. 22° C.)) was “Form I” and the “Result (form of resultant solid)” value (Acetone:water (80:20), 60° C.) was “Form VIII”. The “Result (form of resultant solid)” value (Acetone:water (80:20), RT (ca. 22° C.)) was “Form VIII”, the “Result (form of resultant solid)” value (Isopropanol, 60° C.) was “Form I” and the “Result (form of resultant solid)” value (Isopropanol, RT (ca. 22° C.)) was “Form I”. For the same compound, the “Result (form of resultant solid)” value (Isopropyl acetate, 60° C.) was “Form I” and the “Result (form of resultant solid)” value (Isopropyl acetate, RT (ca. 22° C.)) was “Form I”.
